The values below come from patent publication US20260324639A1, “MICROBIOCIDAL PYRAZOLE DERIVATIVES” (SYNGENTA CROP PROTECTION AG, priority 2022, published 2026).

One experiment concerns Alternaria solani. Nature of the experiment: Alternaria solani/tomato/leaf disc (early blight). Type of experiment: in vivo. The note with it: 200 ppm; tomato leaf disks cv. Baby; inoculated 2 days after application; assessed 5-7 days after application. On the procedure: Tomato leaf disks cv. Baby are placed on agar in multiwell plates (24-well format) and sprayed with the formulated test compound diluted in water. The leaf disks are inoculated with a spore suspension of the fungus 2 days after application. The inoculated leaf disks are incubated at 23° C./21° C. (day/night) and 80% rh under a light regime of 12/12 h (light/dark) in a climate cabinet and the activity of a compound is assessed as percent disease control compared to untreated when an appropriate level of disease damage appears on untreated check disk leaf disks (5-7 days after application).

Another experiment deals with Phaeosphaeria nodorum. Nature of the experiment: Phaeosphaeria nodorum (Septoria nodorum)/wheat/leaf disc preventative (glume blotch). The experiment is classed as in vivo. Conditions: 200 ppm, wheat leaf segments cv. Kanzler, inoculated 2 days after application, assessed 5-7 days after application. On the procedure: Wheat leaf segments cv. Kanzler are placed on agar in a multiwell plate (24-well format) and sprayed with the formulated test compound diluted in water. The leaf disks are inoculated with a spore suspension of the fungus 2 days after application. The inoculated test leaf disks are incubated at 20° C. and 75% rh under a light regime of 12 h light/12 h darkness in a climate cabinet and the activity of a compound is assessed as percent disease control compared to untreated when an appropriate level of disease damage appears in untreated check leaf disks (5-7 days after application).

The test system of the next experiment is Pyrenophora teres. Nature of the experiment: Pyrenophora teres/barley/leaf disc preventative (net blotch). Conditions: 200 ppm, barley leaf segments cv. Hasso, inoculated 2 days after application, assessed 5-7 days after application. The experiment is classed as in vivo. On the procedure: Barley leaf segments cv. Hasso are placed on agar in a multiwell plate (24-well format) and sprayed with the formulated test compound diluted in water. The leaf segments are inoculated with a spore suspension of the fungus 2 days after application. The inoculated leaf segments are incubated at 20° C. and 65% rh under a light regime of 12 h light/12 h darkness in a climate cabinet and the activity of a compound is assessed as disease control compared to untreated when an appropriate level of disease damage appears in untreated check leaf segments (5-7 days after application).

The test system of experiment [1] is Mycosphaerella graminicola. Nature of the experiment: Mycosphaerella graminicola (Septoria tritici)/liquid culture (Septoria blotch). Type of experiment: cell-based. The note with it: Zymoseptoria tritici, liquid culture, PDB, 24° C., growth inhibition photometric 4-5 days after application, read-out: control of Mycosphaerella graminicola compared to untreated control. Here is the method: (§1) Conidia of the fungus from cryogenic storage are directly mixed into nutrient broth (PDB potato dextrose broth). After placing a (DMSO) solution of test compound into a microtiter plate (96-well format), the nutrient broth containing the fungal spores is added. The test plates are incubated at 24° C. and the inhibition of growth is determined photometrically 4-5 days after application.

For a further experiment, the system named is Botryotinia fuckeliana. Nature of the experiment: Botryotinia fuckeliana (Botrytis cinerea)/liquid culture (gray mould). Type of experiment: cell-based. The note with it: liquid culture, Vogels broth, 24° C., growth inhibition photometric 3-4 days after application, read-out: control of Botryotinia fuckeliana compared to untreated control. On the procedure:
Conidia of the fungus from cryogenic storage are directly mixed into nutrient broth (Vogels broth). After placing a (DMSO) solution of test compound into a microtiter plate (96-well format), the nutrient broth containing the fungal spores is added. The test plates are incubated at 24° C. and the inhibition of growth is determined photometrically 3-4 days after application.

The subject of the next experiment is Glomerella lagenarium. Nature of the experiment: Glomerella lagenarium (Colletotrichum lagenarium)/liquid culture (anthracnose). Type of experiment: cell-based. Conditions: Colletotrichum orbiculare, liquid culture, PDB, 24° C., growth inhibition photometric 3-4 days after application, read-out: control of Glomerella lagenarium compared to untreated control. On the procedure: Conidia of the fungus from cryogenic storage are directly mixed into nutrient broth (PDB potato dextrose broth). After placing a (DMSO) solution of test compound into a microtiter plate (96-well format), the nutrient broth containing the fungal spores is added. The test plates are incubated at 24° C. and the inhibition of growth is measured photometrically 3-4 days after application.

For the next experiment, the system named is Monographella nivalis. Nature of the experiment: Monographella nivalis (Microdochium nivale)/liquid culture (foot rot cereals). Type of experiment: cell-based. Conditions: liquid culture, PDB, 24° C., growth inhibition photometric 4-5 days after application, read-out: control of Monographella nivalis compared to untreated control. On the procedure: as §1

The next experiment relates to Mycosphaerella arachidis. Nature of the experiment: Mycosphaerella arachidis (Cercospora arachidicola)/liquid culture (early leaf spot). The experiment is classed as cell-based. The note with it: liquid culture, PDB, 24° C., growth inhibition photometric 4-5 days after application, read-out: control of Mycosphaerella arachidis compared to untreated control. Here is the method: as §1

On to `Cc1c(C2CN(C(=O)c3cn(-c4ncc(F)cc4F)nn3)Cc3ccccc32)cnn1C` (stereo not shown) [Compound P-57, [1-(3,5-difluoro-2-pyridyl)triazol-4-yl]-[4-(1,5-dimethylpyrazol-4-yl)-3,4-dihydro-1H-isoquinolin-2-yl]methanone], for which, in the experiment with Alternaria solani, the “control of Alternaria solani compared to untreated control” value is “at least 80%”. Also, the “control of Phaeosphaeria nodorum compared to untreated control” value in the experiment on Phaeosphaeria nodorum is recorded as “at least 80%”. Further, the “control of Pyrenophora teres compared to untreated control” value in the experiment on Pyrenophora teres is on record as “at least 80%”. Also, the inhibition of growth at 20 ppm in experiment [1] was ≥ 80%.

With `Cc1c(C2CN(C(=O)c3nnn(-c4ccc(F)cc4F)n3)Cc3ccccc32)cnn1C` (stereo not shown) [Compound P-31, [2-(2,4-difluorophenyl)tetrazol-5-yl]-[4-(1,5-dimethylpyrazol-4-yl)-3,4-dihydro-1H-isoquinolin-2-yl]methanone], the “control of Alternaria solani compared to untreated control” value with Alternaria solani is “at least 80%”. Further, the inhibition of growth at 20 ppm (in the experiment on Botryotinia fuckeliana; in the experiment with Glomerella lagenarium; with Monographella nivalis; in the experiment on Mycosphaerella arachidis; in experiment [1]) was ≥ 80% each time. Also, in the experiment with Phaeosphaeria nodorum, the “control of Phaeosphaeria nodorum compared to untreated control” value is given as “at least 80%”. For the same compound, in the experiment on Pyrenophora teres, the “control of Pyrenophora teres compared to untreated control” value is on record as “at least 80%”.

Take `COc1ccc2c(c1)C(c1cnn(C)c1)CN(C(=O)c1nnn(-c3ccccc3)n1)C2C` (stereo not shown) [Compound P-35, [6-methoxy-1-methyl-4-(1-methylpyrazol-4-yl)-3,4-dihydro-1H-isoquinolin-2-yl]-(2-phenyltetrazol-5-yl)methanone]: the inhibition of growth at 20 ppm (in the experiment on Botryotinia fuckeliana; in the experiment with Glomerella lagenarium; in the experiment with Monographella nivalis; in the experiment with Mycosphaerella arachidis; in experiment [1]) was ≥ 80% each time. For the same compound, the “control of Pyrenophora teres compared to untreated control” value in the experiment with Pyrenophora teres is given as “at least 80%”.

`Cn1cc(C2(C)CN(C(=O)c3nnn(-c4ccc(F)cc4F)n3)Cc3ccccc32)cn1` (stereo not shown) [Compound P-32, [2-(2,4-difluorophenyl)tetrazol-5-yl]-[4-methyl-4-(1-methylpyrazol-4-yl)-1,3-dihydroisoquinolin-2-yl]methanone]: the inhibition of growth at 20 ppm in experiment [1] was ≥ 80%.

As to `Cc1c([C@@H]2CN(C(=O)c3cn(-c4ncc(F)cc4F)nn3)[C@H](C)c3ccccc32)cnn1C` [Compound P-44, [1-(3,5-difluoro-2-pyridyl)triazol-4-yl]-[(1R,4R)-4-(1,5-dimethylpyrazol-4-yl)-1-methyl-3,4-dihydro-1H-isoquinolin-2-yl]methanone], the inhibition of growth at 20 ppm (in the experiment with Glomerella lagenarium; in the experiment with Mycosphaerella arachidis; in experiment [1]) was ≥ 80% throughout.

On to `C[C@@H]1c2ccccc2[C@H](c2cnn(C)c2Cl)CN1C(=O)c1cn(-c2ccc(F)cc2F)nn1` [Compound P-47, [(1R,4R)-4-(5-chloro-1-methyl-pyrazol-4-yl)-1-methyl-3,4-dihydro-1H-isoquinolin-2-yl]-[1-(2,4-difluorophenyl)triazol-4-yl]methanone], for which the inhibition of growth at 20 ppm (in the experiment with Mycosphaerella arachidis; in experiment [1]) was ≥ 80% each time.

Turning to `Cc1c([C@H]2CN(C(=O)c3cnn(-c4ccc(F)cc4F)n3)[C@@H](C)c3ccccc32)cnn1C` (racemic) [Compound P-40, [2-(2,4-difluorophenyl)triazol-4-yl]-[rac-(1S,4S)-4-(1,5-dimethylpyrazol-4-yl)-1-methyl-3,4-dihydro-1H-isoquinolin-2-yl]methanone], the “control of Pyrenophora teres compared to untreated control” value with Pyrenophora teres is on record as “at least 80%”. Moreover, in experiment [1], the inhibition of growth at 20 ppm is ≥ 80%.

With `C[C@@H]1c2ccccc2[C@H](c2cnn(C)c2Cl)CN1C(=O)c1nnn(-c2ccc(F)cc2F)n1` [Compound P-50, [(1R,4R)-4-(5-chloro-1-methyl-pyrazol-4-yl)-1-methyl-3,4-dihydro-1H-isoquinolin-2-yl]-[2-(2,4-difluorophenyl)tetrazol-5-yl]methanone], the inhibition of growth at 20 ppm in experiment [1] is ≥ 80%.

Consider `C[C@H]1c2ccccc2[C@@H](c2cnn(C)c2Cl)CN1C(=O)c1cnn(-c2ccc(F)cc2F)n1` [Compound P-45, [(1S,4S)-4-(5-chloro-1-methyl-pyrazol-4-yl)-1-methyl-3,4-dihydro-1H-isoquinolin-2-yl]-[2-(2,4-difluorophenyl)triazol-4-yl]methanone], for which the inhibition of growth at 20 ppm in experiment [1] is ≥ 80%.

On to `Cn1cc(C2CN(C(=O)c3cn(-c4ccc(F)cc4F)nn3)Cc3ccccc32)cn1` (stereo not shown) [Compound P-8, [1-(2,4-difluorophenyl)triazol-4-yl]-[4-(1-methylpyrazol-4-yl)-3,4-dihydro-1H-isoquinolin-2-yl]methanone], for which the “control of Pyrenophora teres compared to untreated control” value in the experiment with Pyrenophora teres was “at least 80%”.

`COc1ccc2c(c1)[C@H](c1cnn(C)c1)CN(C(=O)c1nnn(-c3ccccc3)n1)[C@@H]2C` (single isomer, unassigned) [Compound P-36]: the inhibition of growth at 20 ppm (with Monographella nivalis; in the experiment on Mycosphaerella arachidis; in experiment [1]) was ≥ 80% in each case.

`COc1ccc2c(c1)[C@@H](c1cnn(C)c1)CN(C(=O)c1nnn(-c3ccc(F)cc3F)n1)[C@H]2C` (single isomer, unassigned) [Compound P-38]: the inhibition of growth at 20 ppm (in the experiment with Monographella nivalis; in the experiment on Mycosphaerella arachidis; in experiment [1]) was ≥ 80% each time.

For the compound `Cn1cc(C2CN(C(=O)c3nnn(-c4ccccc4)n3)Cc3ccccc32)cn1` (stereo not shown) [Compound P-14, [4-(1-methylpyrazol-4-yl)-3,4-dihydro-1H-isoquinolin-2-yl]-(2-phenyltetrazol-5-yl)methanone], in the experiment with Alternaria solani, the “control of Alternaria solani compared to untreated control” value is given as “at least 80%”. Besides, the inhibition of growth at 20 ppm (in the experiment on Botryotinia fuckeliana; in the experiment on Glomerella lagenarium; with Monographella nivalis; in the experiment with Mycosphaerella arachidis; in experiment [1]) was ≥ 80% in each case. The “control of Phaeosphaeria nodorum compared to untreated control” value in the experiment with Phaeosphaeria nodorum is reported as “at least 80%”. Moreover, in the experiment with Pyrenophora teres, the “control of Pyrenophora teres compared to untreated control” value is reported as “at least 80%”.

For the compound `Cn1cc(C2CN(C(=O)c3cn(-c4ccccc4)nn3)Cc3ccccc32)cn1` (stereo not shown) [Compound P-11, [4-(1-methylpyrazol-4-yl)-3,4-dihydro-1H-isoquinolin-2-yl]-(1-phenyltriazol-4-yl)methanone], the inhibition of growth at 20 ppm (in the experiment on Glomerella lagenarium; in experiment [1]) was ≥ 80% throughout.

Take `Cn1cc(C2CN(C(=O)c3cnn(-c4ccc(F)cc4)n3)Cc3ccccc32)cn1` (stereo not shown) [Compound P-18, [2-(4-fluorophenyl)triazol-4-yl]-[4-(1-methylpyrazol-4-yl)-3,4-dihydro-1H-isoquinolin-2-yl]methanone]: the inhibition of growth at 20 ppm (with Monographella nivalis; in experiment [1]) was ≥ 80% each time.

As to `Cc1nn(C)c(C)c1C1CN(C(=O)c2cn(-c3ccccc3)nn2)Cc2ccccc21` (stereo not shown) [Compound P-7, (1-phenyltriazol-4-yl)-[4-(1,3,5-trimethylpyrazol-4-yl)-3,4-dihydro-1H-isoquinolin-2-yl]methanone], the inhibition of growth at 20 ppm (in the experiment with Mycosphaerella arachidis; in experiment [1]) was ≥ 80% in each case.

For `COc1ccc2c(c1)C(c1cnn(C)c1)CN(C(=O)c1nnn(-c3ccc(F)cc3F)n1)C2C` (racemic) [Compound P-34, [2-(2,4-difluorophenyl)tetrazol-5-yl]-[6-methoxy-1-methyl-4-(1-methylpyrazol-4-yl)-3,4-dihydro-1H-isoquinolin-2-yl]methanone], the inhibition of growth at 20 ppm (in the experiment with Monographella nivalis; with Mycosphaerella arachidis; in experiment [1]) was ≥ 80% throughout.
